Source: ChEMBL document CHEMBL5537165, “Hepatitis C: The Story of a Long Journey through First, Second, and Third Generation NS3/4A Peptidomimetic Inhibitors. What Did We Learn?” (J Med Chem, 2024)
pEC50, pIC50, pKi: −log10 of the molar value. Values joined by “and” are separate entries in the source; they are usually repeats but may differ in a detail not shown here. Equal entries are not always repeated.

Assays:
[1] = system: Hepatitis C virus; test: Antiviral activity against Hepatitis C virus genotype 1a infected in human Huh-7 cells assessed as reduction in viral infection; format: functional, organism-based, Hepacivirus hominis
[2] = system: Hepatitis C virus; test: Antiviral activity against Hepatitis C virus genotype 1b infected in human Huh-7 cells assessed as reduction in viral infection; format: functional, organism-based, Hepacivirus hominis
[3] = molecular target: T1, Non-structural protein 4b (Hepacivirus hominis, UniProt F5B4I0); test: Binding affinity to Hepatitis C virus genotype 1b NS4B assessed as inhibition constant
T1 sequence (F5B4I0 whole entry): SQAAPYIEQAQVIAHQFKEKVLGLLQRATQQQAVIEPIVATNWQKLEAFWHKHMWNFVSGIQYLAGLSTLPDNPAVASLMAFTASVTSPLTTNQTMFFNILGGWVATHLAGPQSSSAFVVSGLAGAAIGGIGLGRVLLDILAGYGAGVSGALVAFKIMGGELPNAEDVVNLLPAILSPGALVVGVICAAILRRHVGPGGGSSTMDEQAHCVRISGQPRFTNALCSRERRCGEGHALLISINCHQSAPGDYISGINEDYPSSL

[4] = molecular target: T1, Non-structural protein 4b; test: Inhibition of Hepatitis C virus genotype 1a NS4B
[5] = Half life in Sprague-Dawley rat at 5 mg/kg, po by LC-MS/MS analysis; format: ADME, organism-based; conditions: in vivo
[6] = AUC (0 to infinity) in liver to plasma of Sprague-Dawley rat at 3 mg/kg,po; format: ADME, organism-based; conditions: in vivo
[7] = Half life in Beagle dog at 5 mg/kg, po by LC-MS/MS analysis; format: ADME, organism-based, Canis lupus familiaris; conditions: in vivo
[8] = Half life in Cynomolgus monkey at 1.0 mg/kg,iv or 1.25 mg/kg, po; format: ADME, organism-based, Macaca fascicularis; conditions: in vivo
[9] = Half life in human liver microsomes at 1 uM by LC-MS/MS analysis; format: ADME, Microsome
[10] = AUC in Sprague-Dawley rat plasma […] at 10 mg/kg, po administered via gavage by LC-MS/MS analysis; format: ADME, organism-based; conditions: in vivo
[11] = Oral bioavailability in Sprague-Dawley rat at 3 mg/kg by LC-MS/MS analysis; format: ADME, organism-based; conditions: in vivo
[12] = Cmax in Sprague-Dawley rat at 3 mg/kg, po and measured upto 24 hrs by LC-MS/MS analysis; format: ADME, organism-based; conditions: in vivo
[13] = Clearance in Sprague-Dawley rat at 0.5 mg/kg, iv by LC-MS/MS analysis; format: ADME, organism-based; conditions: in vivo
[14] = Volume of distribution at steady state in Sprague-Dawley rat at 3 mg/kg, iv measured up to 24 hrs by LC-MS/MS analysis; format: ADME, organism-based; conditions: in vivo, read-out: Vdss
[15] = AUC in Sprague-Dawley rat at 5 mg/kg, po measured upto 24 hrs by LC/MS/MS analysis; format: ADME, organism-based; conditions: in vivo
[16] = AUC in Beagle dog at 5 mg/kg, po measured upto 24 hrs by LC/MS-MS analysis; format: ADME, organism-based, Canis lupus familiaris; conditions: in vivo
[17] = molecular target: T1, Non-structural protein 4b; test: Inhibition of Hepatitis C virus genotype 1b NS4B
[18] = molecular target: T1, Non-structural protein 4b; test: Inhibition of Hepatitis C virus genotype 3a NS4B
[19] = molecular target: T1, Non-structural protein 4b; test: Inhibition of Hepatitis C virus genotype 4a NS4B
[20] = molecular target: T1, Non-structural protein 4b; test: Inhibition of Hepatitis C virus genotype 5a NS4B
[21] = molecular target: T1, Non-structural protein 4b; test: Inhibition of Hepatitis C virus genotype 6a NS4B
[22] = molecular target: T1, Non-structural protein 4b; test: Inhibition of Hepatitis C virus genotype 3a NS4B expressed in Escherichia coli
[23] = system: SARS-CoV-2; test: Antiviral activity against SARS-CoV-2 infected in African green monkey Vero cells assessed as reduction in viral replication measured after 72 hrs by qRT-PCR analysis; format: functional, organism-based; conditions: Severe acute respiratory syndrome coronavirus 2, Vero
[24] = system: RNA; test: Inhibition of Hepatitis C virus RNA; format: nucleic-acid assay, Hepacivirus hominis
[25] = Oral bioavailability in Sprague-Dawley rat; format: ADME, organism-based; conditions: in vivo
[26] = Oral bioavailability in Beagle dog at 2 mg/kg; format: ADME, organism-based, Canis lupus familiaris; conditions: in vivo
[27] = AUC in Sprague-Dawley rat at 2 mg/kg, po; format: ADME, organism-based; conditions: in vivo
[28] = molecular target: T1, Non-structural protein 4b; test: Binding affinity to Hepatitis C virus genotype 1a NS4B assessed as inhibition constant
[29] = molecular target: T1, Non-structural protein 4b; test: Binding affinity to Hepatitis C virus genotype 3a NS4B assessed as inhibition constant
[30] = molecular target: T1, Non-structural protein 4b; test: Inhibition of Hepatitis C virus genotype 2b NS4B
[31] = molecular target: Hepatitis C virus NS5B RNA-dependent RNA polymerase (Hepatitis C virus, UniProt Q8JXU8); test: Binding affinity to Hepatitis C virus genotype 2a NS5B polymerase assessed as inhibition constant
[32] = molecular target: T1, Non-structural protein 4b; test: Binding affinity to Hepatitis C virus genotype 4a NS4B assessed as inhibition constant
[33] = molecular target: T1, Non-structural protein 4b; test: Binding affinity to Hepatitis C virus genotype 6a NS4B assessed as inhibition constant
[34] = system: Hepatitis C virus; test: Antiviral activity against HCV assessed as inhibition of RNA replication; format: functional, organism-based, Hepacivirus hominis
[35] = molecular target: T1, Non-structural protein 4b; test: Binding affinity to Hepatitis C virus genotype 2b NS4B assessed as inhibition constant
[36] = system: Hepatitis C virus; test: Antiviral activity against Hepatitis C virus infected in human Huh7.5 cells pretreated […] for 2 hrs followed by viral infection for 1 hrs by plaque assay; format: functional, organism-based, Hepacivirus hominis
[37] = AUC in Beagle dog at 2 mg/kg, po; format: ADME, organism-based, Canis lupus familiaris; conditions: in vivo
[38] = Clearance in Sprague-Dawley rat at 2 mg/kg, iv by LC-MS/MS analysis; format: ADME, organism-based; conditions: in vivo
[39] = Clearance in Beagle dog at 2 mg/kg, iv by LC-MS/MS analysis; format: ADME, organism-based, Canis lupus familiaris; conditions: in vivo

Sequence of Hepatitis C virus NS5B RNA-dependent RNA polymerase (Q8JXU8 whole entry): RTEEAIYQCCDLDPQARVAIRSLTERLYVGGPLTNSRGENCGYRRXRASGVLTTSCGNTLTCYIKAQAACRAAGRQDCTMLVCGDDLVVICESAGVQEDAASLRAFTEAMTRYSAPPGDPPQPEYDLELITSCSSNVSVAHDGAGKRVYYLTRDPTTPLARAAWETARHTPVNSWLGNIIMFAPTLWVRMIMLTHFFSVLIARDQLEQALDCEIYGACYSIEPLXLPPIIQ

Q: Which results are given for COc1ccc2c(O[C@@H]3C[C@H]4C(=O)N[C@]5(C(=O)NS(=O)(=O)C6CC6)C[C@H]5/C=C\CCCCC[C@H](CC(=O)N5CCCC(F)(F)C5)C(=O)N4C3)cc(-c3nc(C(C)C)cs3)nc2c1C?
A: pEC50 [1]: 10.40; pEC50 [2]: 9.15

Q: What does the source list for C=C[C@@H]1C[C@]1(NC(=O)[C@@H]1C[C@@H](Oc2cc(-c3ccccc3)nc3cc(OC)ccc23)CN1C(=O)[C@@H](CC(=O)N1CCCCC1)C(C)(C)C)C(=O)NS(=O)(=O)C1CC1 [SOVAPREVIR]?
A: pKi [3]: 10.22; pIC50 [4]: 7.96; half-life [5]: > 90 h; AUC [6]: > 505 µM·h; half-life [7]: 115 h; half-life [8]: 10.4 h; half-life at 1 µM [9]: 1.77 h; AUC [10]: 339 µM·h

Q: For C=C[C@@H]1C[C@]1(NC(=O)[C@@H]1C[C@@H](Oc2cc(-c3csc(NC(=O)C(C)C)n3)nc3c(Br)c(OC)ccc23)CN1C(=O)[C@@H](NC(=O)OC1CCCC1)C(C)(C)C)C(=O)O, which bioavailability [11] is on record?
A: 40%

Q: What about the Cmax [12] of the same molecule?
A: 400 nM

Q: And the half-life [5]?
A: 1.2 h

Q: What about the clearance [13] of the same molecule?
A: 20 mL/min/kg

Q: And the Vd [14]?
A: 1.2 L/kg

Q: What about the AUC [15] of the same molecule?
A: 1.55 µM·h

Q: And the AUC [16]?
A: 13 µM·h

Q: What about the AUC [6] of the same molecule?
A: 40 µM·h

Q: Which results are given for CC(C)Oc1ccc(-c2nc(O[C@@H]3C[C@H]4C(=O)N[C@]5(C(=O)NS(=O)(=O)C6(C)CC6)C[C@H]5/C=C\CCCCC[C@H](NC(=O)OC5CCCC5)C(=O)N4C3)c3oc4ccccc4c3n2)cc1?
A: pIC50 [17]: 9.22; pIC50 [18]: 6.22; pIC50 [4]: 9.22; pIC50 [19]: 9.22; pIC50 [20]: 9.22; pIC50 [21]: 9.22; pEC50 [22]: 8.80; pEC50 [23]: 8.80

Q: With Cc1ccc2nc(-c3ccc4nc(-c5ccc(NC(=O)c6cc(C(F)(F)F)cc(C(F)(F)F)c6)cc5)sc4c3)sc2c1S(=O)(=O)O as the molecule, how does the pIC50 [24] read?
A: 8.30

Q: Which results are given for CC(C)(C)[C@@H]1NC(=O)O[C@@H]2CCC[C@H]2OC/C=C/C(F)(F)c2nc3ccccc3nc2O[C@@H]2C[C@@H](C(=O)N[C@]3(C(=O)NS(=O)(=O)C4(C)CC4)C[C@H]3C(F)F)N(C2)C1=O?
A: pIC50 [17]: 8.05; bioavailability [25]: 90%; bioavailability [26]: 95%; AUC [27]: 22 µM·h; pKi [28]: 10.12; pKi [29]: 9.02; pKi [3]: 10.20; pIC50 [18]: 5.10; pIC50 [30]: 8.42; pIC50 [4]: 8.36; half-life [5]: 2.8 h; half-life [7]: 0.6 h; pKi [31]: 10.28; pKi [32]: 9.04 and 10.04; pKi [33]: 9.96; pIC50 [19]: 8.21; pIC50 [20]: 8.09; pIC50 [21]: 7.95; pEC50 [34]: 9.62

Q: With CC(C)(C)NC(=O)N[C@H](C(=O)N1C[C@H]2[C@@H]([C@H]1C(=O)NC(CC1CCC1)C(=O)C(N)=O)C2(C)C)C(C)(C)C (stereo partly drawn) [BOCEPREVIR] as the molecule, how does the pKi [28] read?
A: 8.22

Q: And the pKi [35]?
A: 8.22

Q: And the pKi [29]?
A: 8.22

Q: With COc1cnc(O[C@@H]2C[C@H]3C(=O)N[C@]4(C(=O)NS(=O)(=O)C5CC5)CC4/C=C\CCCCC[C@H](NC(=O)OC(C)(C)C)C(=O)N3C2)c2cc(Cl)ccc12 (stereo partly drawn) as the molecule, how does the pIC50 [22] read?
A: 7.29

Q: With CCC[C@H](NC(=O)[C@@H]1[C@H]2CCC[C@H]2CN1C(=O)[C@@H](NC(=O)[C@@H](NC(=O)c1cnccn1)C1CCCCC1)C(C)(C)C)C(=O)C(=O)NC1CC1 as the molecule, how does the pIC50 [17] read?
A: 6.45

Q: What about the pEC50 [36] of the same molecule?
A: 7.82

Q: And the bioavailability [25]?
A: 25%

Q: And the bioavailability [26]?
A: 40.7%

Q: And the AUC [27]?
A: 3.34 µM·h

Q: And the AUC [37]?
A: 40.7 µM·h

Q: What about the clearance [38] of the same molecule?
A: 54 mL/min/kg

Q: And the clearance [39]?
A: 42 mL/min/kg
